Laboratory results taken from patent US20090137572A1, “2-substituted-4-heteroaryl-pyrimidines useful for the treatment of proliferative disorders” (priority 2004, published 2009).

Tests used:
[1] = biological target: T1, Flt3 (FMS-like tyrosine kinase-3) (Homo sapiens, UniProt P36888); experiment: Kinase assay (radioactive phosphate incorporation), Flt3; format: biochemical; conditions: pIC50 is -log(IC50, M), read-out: Kinase Inhibition pIC50 Flt3 (converted)
T1 sequence (P36888 27-993): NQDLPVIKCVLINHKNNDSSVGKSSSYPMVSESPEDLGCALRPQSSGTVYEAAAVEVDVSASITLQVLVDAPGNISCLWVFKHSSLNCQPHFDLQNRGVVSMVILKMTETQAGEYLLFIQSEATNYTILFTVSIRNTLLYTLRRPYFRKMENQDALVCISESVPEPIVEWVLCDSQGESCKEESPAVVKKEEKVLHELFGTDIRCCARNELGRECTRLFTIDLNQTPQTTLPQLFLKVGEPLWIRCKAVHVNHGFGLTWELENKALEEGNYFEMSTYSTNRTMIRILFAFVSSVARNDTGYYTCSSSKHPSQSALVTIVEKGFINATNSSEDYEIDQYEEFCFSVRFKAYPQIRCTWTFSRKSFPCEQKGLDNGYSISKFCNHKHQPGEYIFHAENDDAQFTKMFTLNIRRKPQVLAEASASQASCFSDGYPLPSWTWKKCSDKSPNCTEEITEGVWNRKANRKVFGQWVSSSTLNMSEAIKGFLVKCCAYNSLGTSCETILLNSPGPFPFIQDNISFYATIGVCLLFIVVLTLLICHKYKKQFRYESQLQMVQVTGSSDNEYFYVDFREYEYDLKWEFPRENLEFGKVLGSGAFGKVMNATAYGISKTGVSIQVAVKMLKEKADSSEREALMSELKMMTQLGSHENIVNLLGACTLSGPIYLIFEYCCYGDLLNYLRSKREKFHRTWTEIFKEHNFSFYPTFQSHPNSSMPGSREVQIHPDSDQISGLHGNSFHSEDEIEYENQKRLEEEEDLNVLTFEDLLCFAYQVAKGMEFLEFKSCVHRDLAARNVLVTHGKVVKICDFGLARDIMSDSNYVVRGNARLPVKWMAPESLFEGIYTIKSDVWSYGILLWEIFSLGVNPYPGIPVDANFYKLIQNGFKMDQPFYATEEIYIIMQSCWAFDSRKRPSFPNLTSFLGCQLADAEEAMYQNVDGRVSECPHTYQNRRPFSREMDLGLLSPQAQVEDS
Description: (§1) Kinase assays. The compounds of the invention above were investigated for their ability to inhibit the enzymatic activity of various protein kinases (Table 2). This was achieved by measurement of incorporation of radioactive phosphate from ATP into appropriate polypeptide substrates. Recombinant protein kinases and kinase complexes were produced or obtained commercially. Assays were performed using 96-well plates and appropriate assay buffers (typically 25 mM β-glycerophosphate, 20 mM MOPS, 5 mM EGTA, 1 mM DTT, 1 mM […], pH 7.4), into which were added 2-4 μg of active enzyme with appropriate substrates. The reactions were initiated by addition of Mg/ATP mix (15 mM MgCl2+100 μM ATP with 30-50 kBq per well of [γ-^32P]-ATP) and mixtures incubated as required at 30° C. Reactions were stopped on ice, followed by filtration through p81 filterplates or GF/C filterplates (Whatman Polyfiltronics, Kent, UK). After washing 3 times with 75 mM aq orthophosphoric acid, plates were dried, scintillant added and incorporated radioactivity measured in a scintillation counter (TopCount, Packard Instruments, Pangbourne, Berks, UK). Compounds for kinase assay were made up as 10 mM stocks in DMSO and diluted into 10% DMSO in assay buffer.

CDK1-cyclin B = CDK1-cyclin B (Homo sapiens, UniProt P06493); experiment: Kinase assay (radioactive phosphate incorporation), CDK1-cyclin B; format: biochemical; conditions: read-out: Kinase Inhibition pIC50 CDK1-cyclin B (converted)
Description: as §1

Aurora A kinase = biological target: T2, Aurora A kinase (Homo sapiens, UniProt O14965); experiment: Aurora-A (human) kinase assay (Kemptide substrate); format: biochemical; conditions: pIC50 is -log(IC50, M); 15 μM ATP; read-out: Kinase Inhibition pIC50 Aurora A kinase (converted)
T2 construct: purchased
T2 sequence (O14965 1-403): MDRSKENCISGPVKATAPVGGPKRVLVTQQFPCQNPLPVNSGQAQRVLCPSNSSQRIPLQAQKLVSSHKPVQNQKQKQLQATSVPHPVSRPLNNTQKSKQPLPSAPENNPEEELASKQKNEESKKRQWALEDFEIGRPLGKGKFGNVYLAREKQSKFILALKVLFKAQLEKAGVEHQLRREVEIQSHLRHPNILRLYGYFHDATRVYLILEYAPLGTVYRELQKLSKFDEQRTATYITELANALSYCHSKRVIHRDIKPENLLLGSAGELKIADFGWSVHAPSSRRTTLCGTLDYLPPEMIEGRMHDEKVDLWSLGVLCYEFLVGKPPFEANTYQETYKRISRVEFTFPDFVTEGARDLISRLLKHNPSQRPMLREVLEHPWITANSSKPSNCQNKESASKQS
Summary of the method: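 Radiometric filter-binding assay: commercial aurora-A kinase (5-10 ng) with 200 μM Kemptide in MOPS/EDTA pH 7.0, started with 10 mM Mg acetate and 15 μM ATP plus [γ-33P]-ATP. Incubated 40 min at room temperature, stopped with phosphoric acid, incorporated 33P counted by scintillation.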

CDK9/cyclin T1 = CDK9/cyclin T1 (Homo sapiens, UniProt P50750); experiment: CDK 9 assay (CTD peptide substrate); format: biochemical; conditions: read-out: Kinase Inhibition pIC50 CDK9-cyclin T1 (converted)
Summary of the method: (§2)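 Test compounds were incubated with recombinant human kinase/cyclin complex and CTD peptide substrate for 45 min at 30° C (pH 7.2, 100 μM ATP spiked with 32PγATP, 15 mM MgCl2). Reactions were stopped on ice, avidin was added, and phosphorylated peptide was captured on P81 filters and counted by scintillation.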

CDK4-cyclin D1 = CDK4-cyclin D1 (Homo sapiens, UniProt P11802); experiment: Kinase assay (radioactive phosphate incorporation), CDK4-cyclin D1; format: biochemical; conditions: read-out: Kinase Inhibition pIC50 CDK4-cyclin D1 (converted)
Description: as §1

CDK2-cycline E = CDK2-cycline E (Homo sapiens, UniProt P24941); experiment: Kinase assay (radioactive phosphate incorporation), CDK2-cyclin E; format: biochemical; conditions: read-out: Kinase Inhibition pIC50 CDK2-cycline E (converted)
Summary of the method: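 Radiometric filter-binding format: recombinant kinase + substrate, pH 7.4 MOPS buffer with EGTA, DTT, vanadate; 100 μM ATP/[γ-32P]-ATP, 15 mM MgCl2; 30° C; stopped on ice, P81 or GF/C filtration, scintillation read.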

CDK7/cyclin H = CDK7/cyclin H (Homo sapiens, UniProt P50613); experiment: CDK 7 assay (CTD peptide substrate); format: biochemical; conditions: read-out: Kinase Inhibition pIC50 CDK7-cyclin H (converted)
Summary of the method: as §2

GSK3b = GSK3b (Homo sapiens, UniProt P49841); experiment: Kinase assay (radioactive phosphate incorporation), GSK-3b; format: biochemical; conditions: read-out: Kinase Inhibition pIC50 GSK-3b (converted)
Description: as §1

CDK4-cyclin D1, sequence (P11802 whole entry): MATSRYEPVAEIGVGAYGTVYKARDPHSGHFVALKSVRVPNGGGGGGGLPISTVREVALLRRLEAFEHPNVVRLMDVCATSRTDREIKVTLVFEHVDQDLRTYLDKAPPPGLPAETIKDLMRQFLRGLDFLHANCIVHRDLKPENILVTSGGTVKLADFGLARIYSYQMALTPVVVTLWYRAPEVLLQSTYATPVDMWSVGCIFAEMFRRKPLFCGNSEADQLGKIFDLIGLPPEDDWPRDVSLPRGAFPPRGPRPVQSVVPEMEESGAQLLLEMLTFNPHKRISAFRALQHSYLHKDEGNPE
CDK4-cyclin D1, sequence (P24385 whole entry partner): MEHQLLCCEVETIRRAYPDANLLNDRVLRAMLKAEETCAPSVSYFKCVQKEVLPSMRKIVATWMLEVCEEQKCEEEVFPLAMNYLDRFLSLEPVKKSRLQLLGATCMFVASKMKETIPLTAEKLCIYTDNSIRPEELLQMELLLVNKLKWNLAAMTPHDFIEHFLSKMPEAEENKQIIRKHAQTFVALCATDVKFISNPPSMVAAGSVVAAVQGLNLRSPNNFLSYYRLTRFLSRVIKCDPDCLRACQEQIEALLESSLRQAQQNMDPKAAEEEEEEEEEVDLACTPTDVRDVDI
CDK7/cyclin H, sequence (P50613 whole entry): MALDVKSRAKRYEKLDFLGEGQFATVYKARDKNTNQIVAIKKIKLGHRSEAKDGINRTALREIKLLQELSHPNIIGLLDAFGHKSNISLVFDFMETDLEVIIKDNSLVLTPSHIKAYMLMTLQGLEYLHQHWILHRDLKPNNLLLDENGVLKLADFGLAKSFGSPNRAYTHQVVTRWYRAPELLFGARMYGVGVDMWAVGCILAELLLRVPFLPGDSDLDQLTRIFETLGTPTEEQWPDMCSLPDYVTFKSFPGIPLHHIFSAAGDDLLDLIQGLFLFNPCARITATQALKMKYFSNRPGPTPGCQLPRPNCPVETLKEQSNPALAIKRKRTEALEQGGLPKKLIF
CDK7/cyclin H, sequence (P51946 whole entry partner): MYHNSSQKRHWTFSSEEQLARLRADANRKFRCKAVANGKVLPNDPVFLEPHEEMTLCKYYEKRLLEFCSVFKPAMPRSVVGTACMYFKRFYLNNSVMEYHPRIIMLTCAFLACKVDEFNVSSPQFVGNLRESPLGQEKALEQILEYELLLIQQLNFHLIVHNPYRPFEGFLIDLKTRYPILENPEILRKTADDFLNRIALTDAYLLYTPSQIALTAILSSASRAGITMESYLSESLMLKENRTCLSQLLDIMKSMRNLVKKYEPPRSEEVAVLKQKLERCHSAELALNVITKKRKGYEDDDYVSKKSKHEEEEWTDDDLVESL
CDK9/cyclin T1, sequence (P50750 whole entry): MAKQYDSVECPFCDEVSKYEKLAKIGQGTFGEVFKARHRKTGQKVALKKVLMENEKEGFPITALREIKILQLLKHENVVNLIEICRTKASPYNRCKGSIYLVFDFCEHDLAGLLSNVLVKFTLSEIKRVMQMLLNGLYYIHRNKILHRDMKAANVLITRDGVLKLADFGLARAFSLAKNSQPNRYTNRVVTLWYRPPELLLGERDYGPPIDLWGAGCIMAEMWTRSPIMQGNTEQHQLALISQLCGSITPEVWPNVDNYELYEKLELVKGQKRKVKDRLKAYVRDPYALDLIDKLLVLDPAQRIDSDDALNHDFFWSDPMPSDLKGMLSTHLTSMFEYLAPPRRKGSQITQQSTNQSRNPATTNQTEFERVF
CDK9/cyclin T1, sequence (O60563 whole entry partner): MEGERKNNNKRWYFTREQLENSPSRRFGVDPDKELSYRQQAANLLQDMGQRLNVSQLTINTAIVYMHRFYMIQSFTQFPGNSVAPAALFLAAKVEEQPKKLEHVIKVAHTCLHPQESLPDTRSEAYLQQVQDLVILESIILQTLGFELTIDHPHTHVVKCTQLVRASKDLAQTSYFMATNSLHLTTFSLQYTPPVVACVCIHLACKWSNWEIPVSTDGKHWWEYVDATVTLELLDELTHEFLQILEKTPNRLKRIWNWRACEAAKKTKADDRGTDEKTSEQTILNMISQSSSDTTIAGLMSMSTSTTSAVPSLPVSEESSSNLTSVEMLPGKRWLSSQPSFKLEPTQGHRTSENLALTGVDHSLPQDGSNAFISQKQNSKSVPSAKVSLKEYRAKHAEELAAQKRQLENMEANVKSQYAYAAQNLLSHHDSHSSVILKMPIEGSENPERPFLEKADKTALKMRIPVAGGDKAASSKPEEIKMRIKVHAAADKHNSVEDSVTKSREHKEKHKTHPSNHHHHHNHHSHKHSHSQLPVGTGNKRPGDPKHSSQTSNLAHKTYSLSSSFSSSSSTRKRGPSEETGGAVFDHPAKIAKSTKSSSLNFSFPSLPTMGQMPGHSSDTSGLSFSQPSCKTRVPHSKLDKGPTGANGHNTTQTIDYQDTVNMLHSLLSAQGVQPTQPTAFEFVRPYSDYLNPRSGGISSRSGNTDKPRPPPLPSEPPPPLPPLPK
CDK1-cyclin B, sequence (P06493 whole entry): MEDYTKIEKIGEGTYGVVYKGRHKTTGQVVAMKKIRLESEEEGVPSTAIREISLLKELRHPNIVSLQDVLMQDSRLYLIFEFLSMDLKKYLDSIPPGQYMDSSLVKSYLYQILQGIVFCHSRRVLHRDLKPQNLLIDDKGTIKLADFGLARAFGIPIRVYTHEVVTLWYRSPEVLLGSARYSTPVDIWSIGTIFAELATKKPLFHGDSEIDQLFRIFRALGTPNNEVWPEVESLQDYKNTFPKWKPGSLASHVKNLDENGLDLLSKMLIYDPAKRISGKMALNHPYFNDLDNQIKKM
CDK1-cyclin B, sequence (P14635 whole entry partner): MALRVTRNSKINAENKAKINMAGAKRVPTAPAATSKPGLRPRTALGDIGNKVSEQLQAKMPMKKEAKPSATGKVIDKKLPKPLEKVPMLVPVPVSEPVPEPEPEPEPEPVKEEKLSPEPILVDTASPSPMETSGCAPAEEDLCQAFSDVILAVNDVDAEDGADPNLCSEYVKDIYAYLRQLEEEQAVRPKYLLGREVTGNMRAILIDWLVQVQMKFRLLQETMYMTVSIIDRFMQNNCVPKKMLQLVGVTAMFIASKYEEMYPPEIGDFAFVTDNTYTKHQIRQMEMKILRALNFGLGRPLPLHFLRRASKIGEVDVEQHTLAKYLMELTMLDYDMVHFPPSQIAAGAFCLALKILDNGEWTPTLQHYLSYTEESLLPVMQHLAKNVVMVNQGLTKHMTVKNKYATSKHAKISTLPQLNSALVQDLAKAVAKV
GSK3b, sequence (P49841 whole entry, species assumed): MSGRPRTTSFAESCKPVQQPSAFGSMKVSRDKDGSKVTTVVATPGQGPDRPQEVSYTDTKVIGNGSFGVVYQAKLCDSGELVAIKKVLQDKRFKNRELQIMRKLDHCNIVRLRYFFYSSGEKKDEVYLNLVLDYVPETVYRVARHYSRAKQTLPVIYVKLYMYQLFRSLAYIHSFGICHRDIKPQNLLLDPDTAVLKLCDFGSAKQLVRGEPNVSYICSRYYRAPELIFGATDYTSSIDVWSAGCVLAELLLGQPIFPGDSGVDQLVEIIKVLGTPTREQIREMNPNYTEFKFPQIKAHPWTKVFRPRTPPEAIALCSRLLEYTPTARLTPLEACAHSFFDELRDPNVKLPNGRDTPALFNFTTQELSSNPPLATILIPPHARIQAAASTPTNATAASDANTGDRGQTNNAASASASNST

Structure (SMILES) | IC50 [1] [nM] | IC50 (CDK1-cyclin B) [nM] | IC50 (Aurora A kinase) [nM] | IC50 (CDK9/cyclin T1) [nM] | IC50 (CDK4-cyclin D1) [nM] | IC50 (CDK2-cycline E) [nM] | IC50 (CDK7/cyclin H) [nM] | IC50 (GSK3b) [nM] | melting point [°C]
CCNc1nc(C)c(-c2ccnc(Nc3cccc(S(=O)(=O)NCC)c3)n2)s1 [Compound 29, N-Ethyl-3-[4-(2-ethylamino-4-methyl-thiazol-5-yl)-pyrimidin-2-ylamino]-benzenesulfonamide] | 1000 | – | 50.1 | 10 | 398 | 316 | 794 | – | –
CCNc1nc(C)c(-c2ccnc(Nc3ccc(C)c(S(=O)(=O)N4CCOCC4)c3)n2)s1 [Compound 36, [4-(2-Ethylamino-4-methyl-thiazol-5-yl)-pyrimidin-2-yl]-[4-methyl-3-(morpholine-4-sulfonyl)-phenyl]-amine] | – | – | 12.6 | 39.8 | – | – | 1260 | 3980 | –
CC(=O)N1CCN(c2ccc(Nc3nccc(-c4sc(NCCc5ccccc5)nc4C)n3)cc2)CC1 [Compound 163, 1-(4-{4-[4-(4-Methyl-2-phenethylamino-thiazol-5-yl)-pyrimidin-2-ylamino]-phenyl}-piperazin-1-yl)-ethanone] | 126 | – | 63.1 | 631 | – | 1260 | 2510 | – | 212 to 213
CC(=O)N1CCN(c2ccc(Nc3nccc(-c4sc(N(C)c5cccnc5)nc4C)n3)cc2)CC1 [Compound 164, 1-[4-(4-{4-[4-Methyl-2-(methyl-pyridin-3-yl-amino)-thiazol-5-yl]pyrimidin-2-ylamino}-phenyl)-piperazin-1-yl]-ethanone] | 25.1 | – | 31.6 | 2000 | – | 398 | 3980 | – | 205 to 206
CCNc1nc(C)c(-c2ccnc(Nc3ccc(N4CCOCC4)c(C)c3)n2)s1 [Compound 219, [4-(2-Ethylamino-4-methyl-thiazol-5-yl)-pyrimidin-2-yl]-(3-methyl-4-morpholin-4-yl-phenyl)-amine] | – | – | 63.1 | 3160 | – | 1000 | – | – | 213 to 214
Cc1nc(C)c(-c2ccnc(Nc3ccc(N4CCOCC4)c(C)c3)n2)s1 [Compound 220, [4-(2,4-Dimethyl-thiazol-5-yl)-pyrimidin-2-yl]-(3-methyl-4-morpholin-4-yl-phenyl)-amine] | – | – | 39.8 | 6310 | – | 1260 | – | – | 164 to 166

Results, then the compound that gave them:

IC50 [1] [nM] | IC50 (CDK1-cyclin B) [nM] | IC50 (Aurora A kinase) [nM] | IC50 (CDK9/cyclin T1) [nM] | IC50 (CDK4-cyclin D1) [nM] | IC50 (CDK2-cycline E) [nM] | IC50 (CDK7/cyclin H) [nM] | IC50 (GSK3b) [nM] | melting point [°C] | Structure (SMILES)
7.94 | 2000 | 2.51 | 31.6 | – | – | – | – | – | CCNc1nc(C)c(-c2ccnc(Nc3cc(OC)c(OC)c(OC)c3)n2)s1 [Compound 24, [4-(2-Ethylamino-4-methyl-thiazol-5-yl)-pyrimidin-2-yl]-(3,4,5-trimethoxy-phenyl)-amine]
– | 79400 | 63.1 | 10000 | 10000 | – | 15800 | – | – | CC(=O)N1CCN(c2ccc(Nc3nccc(-c4sc(N)nc4C)n3)cc2)CC1 [Compound 57, 1-(4-{4-[4-(2-Amino-4-methyl-thiazol-5-yl)-pyrimidin-2-ylamino]-phenyl}-piperazin-1-yl)-ethanone]
– | – | – | 1580 | 3160 | 6310 | 6310 | – | – | CCNc1nc(C)c(-c2ccnc(NCc3cccnc3)n2)s1 [Compound 79, [4-(2-Ethylamino-4-methyl-thiazol-5-yl)-pyrimidin-2-yl]-pyridin-3-ylmethyl-amine]
– | – | 398 | 251 | – | – | – | 2510 | – | CCNc1nc(C)c(-c2ccnc(Nc3cccc(S(=O)(=O)NCc4ccccc4)c3)n2)s1 [Compound 80, N-Benzyl-3-[4-(2-ethylamino-4-methyl-thiazol-5-yl)-pyrimidin-2-ylamino]-benzenesulfonamide]
316 | – | 251 | – | – | – | – | – | 240 to 242 | Cc1nc(-c2cccnc2)sc1-c1ccnc(Nc2ccc(N3CCOCC3)cc2)n1 [Compound 100, [4-(4-Methyl-2-pyridin-3-yl-thiazol-5-yl)-pyrimidin-2-yl]-(4-morpholin-4-yl-phenyl)-amine]
– | – | – | 5010 | – | 2510 | 2510 | – | 199 to 201 | CC(=O)NCc1ccc(Nc2nccc(-c3sc(-c4cccnc4)nc3C)n2)cc1 [Compound 103, N-{4-[4-(4-Methyl-2-pyridin-3-yl-thiazol-5-yl)-pyrimidin-2-ylamino]-benzyl}-acetamide]
– | – | 251 | 2510 | – | 2510 | 1580 | – | 134 to 136 | CC(=O)N1CCN(c2ccc(Nc3nccc(-c4sc(-c5cccs5)nc4C)n3)cc2)CC1 [Compound 131, 1-(4-{4-[4-(4-Methyl-2-thiophen-2-yl-thiazol-5-yl)-pyrimidin-2-ylamino]-phenyl}-piperazin-1-yl)-ethanone]
5.01 | – | 100 | – | – | 158 | – | – | 269 to 271 | COc1cc(Nc2nccc(-c3sc(N)nc3C)n2)cc(OC)c1 [Compound 161, [4-(2-Amino-4-methyl-thiazol-5-yl)-pyrimidin-2-yl]-(3,5-dimethoxy-phenyl)-amine]
20 | – | 63.1 | – | – | 2510 | – | – | 184 to 186 | COc1cc(Nc2nccc(-c3sc(NCCc4ccccc4)nc3C)n2)cc(OC)c1OC [Compound 165, [4-(4-Methyl-2-phenethylamino-thiazol-5-yl)-pyrimidin-2-yl]-(3,4,5-trimethoxy-phenyl)-amine]
